One experiment has as its system pullulanase-like enzyme. Briefly: Inhibition of the pullulanase activity by metal salts. The class given is biochemical, Bacillus subtilis. The following applies: inhibitor concentration 1×10^-3 M. As for the experimental part: (6) Inhibitor: This enzyme undergoes not less than 90% of inhibition by each of HgCl2 and AgNO3 used in a concentration of 1×10^-3 M and about 70% of inhibition by ZnSO4 used in the same concentration.
(10) Procedure for determination of activity: This enzyme is added in a suitable amount to 0.5 ml of a 1% pullulan solution (pH 7.0) obtained by dissolving pullulan in 0.1M phosphate buffer. The mixture is made up to a total volume of 1 ml with water and incubated at 40° C. The amount of this enzyme which is required in producing reducing power equivalent to 1μ mole of glucose after one minute standing under the aforementioned conditions is defined as one unit.

Experiment [1] relates to Bacillus subtilis TU strain. Briefly: Growth on culture medium containing Tunicamycin, TU strain. Type of experiment: cell-based. The following applies: culture medium containing Tunicamycin 25-100 μg/ml. The text has this:
(§1) The aforementioned pullulanase-like enzyme is produced by a bacterium isolated from soil and identified to be Bacillus subtilis (FERM BP-672). […] It has been designated as Bacillus subtilis TU strain, deposited with Fermentation Research Institute, Agency of Industrial Science & Technology on Oct. 13, 1984 under FERM 7893, and also transferred to the International Deposition based on the Budapest Treaty on Dec. 20, 1984 and designated FERM BP-684.
(§2) A strain of Bacillus subtilis (FERM BP-672) was suspended in distilled water and irradiated with the ultraviolet light (15 W) from its source at a distance of about 30 cm for 5 minutes. Part of the irradiated suspension was placed in a culture medium containing 75 μg of Tunicamycin per ml (containing 1% of polypepton, 1% of soluble starch, 0.3% of K2 HPO4, and 0.1% of MgSO4.7H2 O) and aerobically cultured therein at 30° C. for three days. The grown microorganism was sprayed on a plate culture medium with the same culture medium containing agar and incubated at 30° C. The colonies which grew were preserved on a slant medium of the same composition. In the Tunicamycin-resistant mutants so produced, there was obtained in high frequency a strain of enhanced activity to produce the pullulanase-like enzyme. Bacillus subtilis TU strain (FERM BP-684) was thus obtained.

Experiment [2] has as its system Bacillus subtilis (FERM BP-672) parent strain. Briefly: Growth on culture medium containing Tunicamycin, parent strain. The following applies: culture medium containing Tunicamycin 25-100 μg/ml. The class given is cell-based.
From the text: as §1, §2

Consider `O=[N+]([O-])[O-].[Ag+]` [AgNO3], for which the inhibition entry in the experiment with pullulanase-like enzyme is “not less than 90%”.

For the molecule Tunicamycin, the “growth of the TU strain” value in experiment [1] is “grows fairly well”. Besides, the “growth of the parent strain” value in experiment [2] is given as “fails to show any growth”. Consider `O=S(=O)([O-])[O-].[Zn+2]` [ZnSO4], for which, in the experiment with pullulanase-like enzyme, the inhibition entry was “about 70%”. Turning to `[Cl][Hg][Cl]` [HgCl2], the inhibition result in the experiment with pullulanase-like enzyme is listed as “not less than 90%”.

The values above are taken from patent US4657865A, “Pullulanase-like enzyme, method for preparation thereof, and method for saccharification of starch therewith” (Agency of Industrial Science & Technology, priority 1985, dated 1987).
